{"source": "patent US11951109B2", "about": "“EZH2 inhibitors for treating lymphoma” (Epizyme, Inc., priority 2015, dated 2024)"}
{"system": "SU-DHL-10", "assay": "Combination of EPZ-6438 and other therapeutic agents (4+3 model), SU-DHL-10", "settings": "Mutant EZH2 GCB"}
{"molecule": "COC1=CC(c2cc3ccccc3[nH]2)=N/C1=C\\c1[nH]c(C)cc1C", "note": "[Obatoclax]", "combination effect with EPZ-6438, SU-DHL-10": "ADD."}
{"molecule": "CCn1cc(-c2ccnc3[nH]c(-c4cccc(CN(C)C)c4)cc23)c(-c2ccc(NC(=O)N(C)C)cc2)n1", "note": "[GSK1070916]", "combination effect with EPZ-6438, SU-DHL-10": "ADD."}
{"system": "SU-DHL-6", "assay": "Combination of EPZ-6438 and other therapeutic agents (4+3 model), SU-DHL-6", "settings": "Mutant EZH2 GCB"}
{"molecule": "Rituximab: therapeutic agent combined with EPZ-6438; component of R-CHOP", "combination effect with EPZ-6438, SU-DHL-6": "S"}
{"molecule": "COC1=CC(c2cc3ccccc3[nH]2)=N/C1=C\\c1[nH]c(C)cc1C", "note": "[Obatoclax]", "combination effect with EPZ-6438, SU-DHL-6": "ADD."}
{"system": "SUDHL5", "assay": "Combination of EPZ-6438 and other therapeutic agents (4+3 model), SUDHL5", "settings": "WT EZH2 GCB"}
{"molecule": "CC(C)NC[C@@H](C(=O)N1CCN(c2ncnc3c2[C@H](C)C[C@H]3O)CC1)c1ccc(Cl)cc1", "note": "[GDC0068, Ipatasertib]", "combination effect with EPZ-6438, SUDHL5": "S"}
{"molecule": "CCn1c(-c2nonc2N)nc2c(C#CC(C)(C)O)ncc(OC[C@H]3CCCNC3)c21", "note": "[GSK690693]", "combination effect with EPZ-6438, SUDHL5": "S"}
{"molecule": "COc1cc([C@@H]2c3cc4c(cc3[C@@H](O[C@@H]3O[C@@H]5CO[C@@H](C)O[C@H]5[C@H](O)[C@H]3O)[C@H]3COC(=O)[C@H]23)OCO4)cc(OC)c1O", "note": "[Etoposide]", "combination effect with EPZ-6438, SUDHL5": "S"}
{"molecule": "CC(=O)c1c(C)c2cnc(Nc3ccc(N4CCNCC4)cn3)nc2n(C2CCCC2)c1=O", "note": "[Palbociclib]", "combination effect with EPZ-6438, SUDHL5": "S"}
{"molecule": "COc1ncc(-c2ccc3nccc(-c4ccnnc4)c3c2)cc1NS(=O)(=O)c1ccc(F)cc1F", "note": "[GSK2126458, Omipalisib]", "combination effect with EPZ-6438, SUDHL5": "S"}
{"molecule": "CN(C)C(=O)c1cc2cnc(Nc3ccc(N4CCNCC4)cn3)nc2n1C1CCCC1", "note": "[Ribociclib]", "combination effect with EPZ-6438, SUDHL5": "S"}
{"system": "KARPAS-422", "assay": "Combination of EPZ-6438 and other therapeutic agents (4+3 model), KARPAS-422", "settings": "Mutant EZH2 GCB"}
{"molecule": "CC(C)NC[C@@H](C(=O)N1CCN(c2ncnc3c2[C@H](C)C[C@H]3O)CC1)c1ccc(Cl)cc1", "note": "[GDC0068, Ipatasertib]", "combination effect with EPZ-6438, KARPAS-422": "S"}
{"molecule": "CCn1c(-c2nonc2N)nc2c(C#CC(C)(C)O)ncc(OC[C@H]3CCCNC3)c21", "note": "[GSK690693]", "combination effect with EPZ-6438, KARPAS-422": "S"}
{"molecule": "COc1cc([C@@H]2c3cc4c(cc3[C@@H](O[C@@H]3O[C@@H]5CO[C@@H](C)O[C@H]5[C@H](O)[C@H]3O)[C@H]3COC(=O)[C@H]23)OCO4)cc(OC)c1O", "note": "[Etoposide]", "combination effect with EPZ-6438, KARPAS-422": "S"}
{"molecule": "CC(=O)c1c(C)c2cnc(Nc3ccc(N4CCNCC4)cn3)nc2n(C2CCCC2)c1=O", "note": "[Palbociclib]", "combination effect with EPZ-6438, KARPAS-422": "S"}
{"molecule": "COc1ncc(-c2ccc3nccc(-c4ccnnc4)c3c2)cc1NS(=O)(=O)c1ccc(F)cc1F", "note": "[GSK2126458, Omipalisib]", "combination effect with EPZ-6438, KARPAS-422": "S"}
{"molecule": "COC1=CC(c2cc3ccccc3[nH]2)=N/C1=C\\c1[nH]c(C)cc1C", "note": "[Obatoclax]", "combination effect with EPZ-6438, KARPAS-422": "S"}
{"molecule": "CN(C)C(=O)c1cc2cnc(Nc3ccc(N4CCNCC4)cn3)nc2n1C1CCCC1", "note": "[Ribociclib]", "combination effect with EPZ-6438, KARPAS-422": "S"}
{"system": "SUDHL2", "assay": "Combination of EPZ-6438 and other therapeutic agents (4+3 model), SUDHL2", "settings": "WT EXH2 ABC"}
{"molecule": "OG-L002", "combination effect with EPZ-6438, SUDHL2": "ANTAG."}
{"molecule": "Cc1cnc(Nc2ccc(OCCN3CCCC3)cc2)nc1Nc1cccc(S(=O)(=O)NC(C)(C)C)c1", "note": "[Fedratinib]", "combination effect with EPZ-6438, SUDHL2": "ADD."}
{"system": "WSU-DLCL2", "assay": "Combination of EPZ-6438 and other therapeutic agents (4+3 model), WSU-DLCL2", "settings": "Mutant EZH2 GCB; EPZ-6438 4 days then co-treatment 3 days (4+3 model)"}
{"molecule": "CCCS(=O)(=O)Nc1ccc(F)c(C(=O)c2c[nH]c3ncc(-c4ccc(Cl)cc4)cc23)c1F", "note": "[Vemurafenib]", "combination effect with EPZ-6438, WSU-DLCL2": "ADD."}
{"molecule": "CC(C)NC[C@@H](C(=O)N1CCN(c2ncnc3c2[C@H](C)C[C@H]3O)CC1)c1ccc(Cl)cc1", "note": "[GDC0068, Ipatasertib]", "combination effect with EPZ-6438, WSU-DLCL2": "S"}
{"molecule": "CCn1c(-c2nonc2N)nc2c(C#CC(C)(C)O)ncc(OC[C@H]3CCCNC3)c21", "note": "[GSK690693]", "combination effect with EPZ-6438, WSU-DLCL2": "S"}
{"molecule": "COc1cc([C@@H]2c3cc4c(cc3[C@@H](O[C@@H]3O[C@@H]5CO[C@@H](C)O[C@H]5[C@H](O)[C@H]3O)[C@H]3COC(=O)[C@H]23)OCO4)cc(OC)c1O", "note": "[Etoposide]", "combination effect with EPZ-6438, WSU-DLCL2": "S"}
{"molecule": "CC(=O)c1c(C)c2cnc(Nc3ccc(N4CCNCC4)cn3)nc2n(C2CCCC2)c1=O", "note": "[Palbociclib]", "combination effect with EPZ-6438, WSU-DLCL2": "S"}
{"molecule": "COc1ncc(-c2ccc3nccc(-c4ccnnc4)c3c2)cc1NS(=O)(=O)c1ccc(F)cc1F", "note": "[GSK2126458, Omipalisib]", "combination effect with EPZ-6438, WSU-DLCL2": "S"}
{"molecule": "CNC(=O)c1cc(Oc2ccc(NC(=O)Nc3ccc(Cl)c(C(F)(F)F)c3)cc2)ccn1", "note": "[Sorafenib]", "combination effect with EPZ-6438, WSU-DLCL2": "ADD."}
{"molecule": "Rituximab: therapeutic agent combined with EPZ-6438; component of R-CHOP", "combination effect with EPZ-6438, WSU-DLCL2": "S"}
{"molecule": "COC1=CC(c2cc3ccccc3[nH]2)=N/C1=C\\c1[nH]c(C)cc1C", "note": "[Obatoclax]", "combination effect with EPZ-6438, WSU-DLCL2": "ADD."}
{"molecule": "CCn1cc(-c2ccnc3[nH]c(-c4cccc(CN(C)C)c4)cc23)c(-c2ccc(NC(=O)N(C)C)cc2)n1", "note": "[GSK1070916]", "combination effect with EPZ-6438, WSU-DLCL2": "S"}
{"molecule": "CN(C)C(=O)c1cc2cnc(Nc3ccc(N4CCNCC4)cn3)nc2n1C1CCCC1", "note": "[Ribociclib]", "combination effect with EPZ-6438, WSU-DLCL2": "S"}
